Reference: patent publication US20250163066A1, “PROTACs of MALT1” (TEGID THERAPEUTICS, INC., priority 2022, published 2025)

Tests used:
[1] = tested on: IL-2 MALT1-dependent release in Jurkat cells; assay: cells; format: cell-based; conditions: Homo sapiens; for EC50: Jurkat cells stimulated with antiCD3/antiCD28 for 24 h, IL-2 ELISA, read-out: EC50, IL-2 MALT1-dependent release inhibition; for CC50: Jurkat, 24 h, read-out: CC50 (IL-2 MALT1-dependent release inhibition)
Protocol: Jurkat cells (ATCC, USA) (100,000 cells/well in a 96 well flat-bottom plate (Greiner, #655061) were cultured in RPMI 1640 supplemented with 10% FBS at 37° C., 5% CO2 in a humidified cell culture incubator for 0.5-1 h. Then 10 μl/well 15× compound (or DMSO) was added in duplicates. Cells were incubated with compound in a humidified cell culture incubator for 0.5-1 h. After the incubation, 10 μl/well of 15× human antiCD3 HIT3a antibody (BioLegend) together with 10 μl/well of 15× human antiCD28 antibody (Invitrogen) were added to stimulate Jurkat cells for 24 h. After 24 h of stimulation, supernatants were collected and IL-2 levels in supernatants were assessed using IL-2 ELISA kit (Vector-Best, Russia).

MALT1 = MALT1 (Homo sapiens (Human), UniProt Q9UDY8); assay: MALT1 enzymatic activity inhibition (fluorescence, Ac-LRSR-AMC substrate); format: biochemical; conditions: recombinant MALT1 1.5 ng/μl, Ac-LRSR-AMC 1 μM
Outline: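 Recombinant human MALT1 (1.5 ng/μl final) preincubated 10 min at rt with compounds in 50 mM HEPES pH 7.2-7.4, 100 mM NaCl, 900 mM sodium citrate, 10 mM DTT; 1 μM Ac-LRSR-AMC then added. AMC fluorescence read at start and after 30 min 37 °C plus 30 min rt; difference gives signal, % inhibition fitted to IC50.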

Sequence of MALT1 (Q9UDY8 whole entry): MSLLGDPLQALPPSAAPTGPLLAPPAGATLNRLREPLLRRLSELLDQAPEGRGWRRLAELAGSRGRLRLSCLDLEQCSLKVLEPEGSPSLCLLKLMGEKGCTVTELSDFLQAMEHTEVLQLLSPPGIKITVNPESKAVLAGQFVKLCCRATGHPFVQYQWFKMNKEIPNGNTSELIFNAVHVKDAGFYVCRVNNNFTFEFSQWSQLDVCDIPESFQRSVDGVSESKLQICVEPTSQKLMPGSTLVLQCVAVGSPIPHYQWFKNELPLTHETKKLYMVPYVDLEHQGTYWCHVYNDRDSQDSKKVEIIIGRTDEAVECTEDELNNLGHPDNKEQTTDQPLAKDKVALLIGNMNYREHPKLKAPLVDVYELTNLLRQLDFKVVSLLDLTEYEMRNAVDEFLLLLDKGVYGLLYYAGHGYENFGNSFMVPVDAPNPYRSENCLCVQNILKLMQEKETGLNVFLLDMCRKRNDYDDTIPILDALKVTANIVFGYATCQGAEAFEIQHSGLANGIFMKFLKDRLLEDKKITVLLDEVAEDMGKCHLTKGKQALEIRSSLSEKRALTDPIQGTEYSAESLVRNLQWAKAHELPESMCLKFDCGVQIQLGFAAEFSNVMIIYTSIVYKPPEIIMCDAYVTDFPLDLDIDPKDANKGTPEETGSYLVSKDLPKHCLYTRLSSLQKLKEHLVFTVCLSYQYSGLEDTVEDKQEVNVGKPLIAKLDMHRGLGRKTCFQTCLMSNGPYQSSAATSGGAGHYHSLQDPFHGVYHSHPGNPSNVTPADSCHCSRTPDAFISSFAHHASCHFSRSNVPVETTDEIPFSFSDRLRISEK

EC50 [1] | EC50 (MALT1) | SMILES | CC50 [1]
1000 to 5000 nM | 0.2 to 0.5 µM | O=C(CCOCCOCCN1CCN(c2ccc3c(c2)CN(C2CCC(=O)NC2=O)C3=O)CC1)NCCOc1ncc(Cl)cc1NC(=O)Nc1cnc2ccnn2c1C1CCCC1 (stereo not drawn) [Compound 38, N-[2-[[5-chloro-3-[(7-cyclopentylpyrazolo[1,5-a]pyrimidin-6-yl)carbamoylamino]-2-pyridyl]oxy]ethyl]-3-[2-[2-[4-[2-(2,6-dioxo-3-piperidyl)-1-oxo-isoindolin-5-yl]piperazin-1-yl]ethoxy]ethoxy]propanamide] | –
– | ≤ 0.2 µM | Cc1cc(NC(=O)Nc2cnc3ccnn3c2C2CCC2)cnc1-c1noc(CCCCC(=O)N2CCN(c3ccc4c(c3)CN(C3CCC(=O)NC3=O)C4=O)CC2)n1 (stereo not drawn) [Compound 112, 1-(7-cyclobutylpyrazolo[1,5-a]pyrimidin-6-yl)-3-[6-[5-[5-[4-[2-(2,6-dioxo-3-piperidyl)-1-oxo-isoindolin-5-yl]piperazin-1-yl]-5-oxo-pentyl]-1,2,4-oxadiazol-3-yl]-5-methyl-3-pyridyl]urea] | > 5000 nM
– | 0.2 to 0.5 µM | Cc1cc(NC(=O)Nc2cnc3ccnn3c2C2CCCCC2)cnc1-c1noc(CCCCCC(=O)Nc2ccc3c(c2)CN(C2CCC(=O)NC2=O)C3=O)n1 (stereo not drawn) [Compound 109, 6-[3-[5-[(7-cyclohexylpyrazolo[1,5-a]pyrimidin-6-yl)carbamoylamino]-3-methyl-2-pyridyl]-1,2,4-oxadiazol-5-yl]-N-[2-(2,6-dioxo-3-piperidyl)-1-oxo-isoindolin-5-yl]hexanamide] | < 500 nM
< 500 nM | ≤ 0.2 µM | O=C1CCC(N2Cc3cc(N4CCN(C(=O)CCCc5nc(-c6ncc(NC(=O)Nc7cnc8ccnn8c7C7CCCC7)cc6C(F)(F)F)no5)CC4)ccc3C2=O)C(=O)N1 (stereo not drawn) [Compound 106, 1-(7-cyclopentylpyrazolo[1,5-a]pyrimidin-6-yl)-3-[6-[5-[4-[4-[2-(2,6-dioxo-3-piperidyl)-1-oxo-isoindolin-5-yl]piperazin-1-yl]-4-oxo-butyl]-1,2,4-oxadiazol-3-yl]-5-(trifluoromethyl)-3-pyridyl]urea] | –
– | ≤ 0.2 µM | Cc1cc(NC(=O)Nc2cnc3ccnn3c2C2CCCCC2)cnc1-c1noc(CCCC(=O)Nc2ccc3c(c2)CN(C2CCC(=O)NC2=O)C3=O)n1 (stereo not drawn) [Compound 123, 4-[3-[5-[(7-cyclohexylpyrazolo[1,5-a]pyrimidin-6-yl)carbamoylamino]-3-methyl-2-pyridyl]-1,2,4-oxadiazol-5-yl]-N-[2-(2,6-dioxo-3-piperidyl)-1-oxo-isoindolin-5-yl]butanamide] | < 500 nM
< 500 nM | ≤ 0.2 µM | Cc1cc(NC(=O)Nc2cnc3ccnn3c2C(C)C)cnc1-c1noc(CCCC(=O)N2CCN(c3ccc4c(c3)CN(C3CCC(=O)NC3=O)C4=O)CC2)n1 (stereo not drawn) [Compound 89, 1-[6-[5-[4-[4-[2-(2,6-dioxo-3-piperidyl)-1-oxo-isoindolin-5-yl]piperazin-1-yl]-4-oxo-butyl]-1,2,4-oxadiazol-3-yl]-5-methyl-3-pyridyl]-3-(7-isopropylpyrazolo[1,5-a]pyrimidin-6-yl)urea] | –
– | ≤ 0.2 µM | O=C1CCC(N2Cc3cc(N4CCN(CCCCCCc5nc(-c6ncc(NC(=O)Nc7cnc8ccnn8c7C7CCCCC7)cc6Cl)no5)CC4)ccc3C2=O)C(=O)N1 (stereo not drawn) [Compound 119, 1-[5-chloro-6-[5-[6-[4-[2-(2,6-dioxo-3-piperidyl)-1-oxo-isoindolin-5-yl]piperazin-1-yl]hexyl]-1,2,4-oxadiazol-3-yl]-3-pyridyl]-3-(7-cyclohexylpyrazolo[1,5-a]pyrimidin-6-yl)urea] | < 500 nM
500 to 1000 nM | ≤ 0.2 µM | Cc1cc(NC(=O)Nc2cnc3ccnn3c2C2CCCC2)cnc1-c1noc(CCCCCN2CCN(c3cc4c(cc3F)C(=O)N(C3CCC(=O)NC3=O)C4=O)CC2)n1 (stereo not drawn) [Compound 55, 1-(7-cyclopentylpyrazolo[1,5-a]pyrimidin-6-yl)-3-[6-[5-[5-[4-[2-(2,6-dioxo-3-piperidyl)-6-fluoro-1,3-dioxo-isoindolin-5-yl]piperazin-1-yl]pentyl]-1,2,4-oxadiazol-3-yl]-5-methyl-3-pyridyl]urea] | –
– | 1 to 5 µM | CC(C)c1c(NC(=O)Nc2ccc(-c3nnc(CCCCCC(=O)N4CCN(c5ccc6c(c5)CN(C5CCC(=O)NC5=O)C6=O)CC4)o3)nc2)cnc2ccnn12 (stereo not drawn) [Compound 110, 1-[6-[5-[6-[4-[2-(2,6-dioxo-3-piperidyl)-1-oxo-isoindolin-5-yl]piperazin-1-yl]-6-oxo-hexyl]-1,3,4-oxadiazol-2-yl]-3-pyridyl]-3-(7-isopropylpyrazolo[1,5-a]pyrimidin-6-yl)urea] | > 5000 nM
500 to 1000 nM | ≤ 0.2 µM | O=C1CCC(N2Cc3cc(N4CCN(C(=O)CCCCc5nc(-c6ncc(NC(=O)Nc7cnc8ccnn8c7C7CCCC7)cc6Cl)no5)CC4)ccc3C2=O)C(=O)N1 (stereo not drawn) [Compound 76, 1-[5-chloro-6-[5-[5-[4-[2-(2,6-dioxo-3-piperidyl)-1-oxo-isoindolin-5-yl]piperazin-1-yl]-5-oxo-pentyl]-1,2,4-oxadiazol-3-yl]-3-pyridyl]-3-(7-cyclopentylpyrazolo[1,5-a]pyrimidin-6-yl)urea] | –
< 500 nM | 0.2 to 0.5 µM | Cc1cc(NC(=O)Nc2cnc3ccnn3c2C2CCCC2)cnc1-c1noc(CCCN2CCN(c3cc4c(cc3F)C(=O)N(C3CCC(=O)NC3=O)C4=O)CC2)n1 (stereo not drawn) [Compound 23, 1-(7-cyclopentylpyrazolo[1,5-a]pyrimidin-6-yl)-3-[6-[5-[3-[4-[2-(2,6-dioxo-3-piperidyl)-6-fluoro-1,3-dioxo-isoindolin-5-yl]piperazin-1-yl]propyl]-1,2,4-oxadiazol-3-yl]-5-methyl-3-pyridyl]urea] | –
< 500 nM | ≤ 0.2 µM | Cc1cc(NC(=O)Nc2cnc3ccnn3c2C(C)C)cnc1-c1noc(CCCCCCN2CCN(c3ccc4c(c3)CN(C3CCC(=O)NC3=O)C4=O)CC2)n1 (stereo not drawn) [Compound 92, 1-[6-[5-[6-[4-[2-(2,6-dioxo-3-piperidyl)-1-oxo-isoindolin-5-yl]piperazin-1-yl]hexyl]-1,2,4-oxadiazol-3-yl]-5-methyl-3-pyridyl]-3-(7-isopropylpyrazolo[1,5-a]pyrimidin-6-yl)urea] | –
1000 to 5000 nM | ≤ 0.2 µM | Cc1cc(NC(=O)Nc2cnc3ccnn3c2C2CCCC2)cnc1-c1noc(CCCCCN2CCN(c3ccc4c(c3)CN(C3CCC(=O)N(COC(=O)C(C)(C)C)C3=O)C4=O)CC2)n1 (stereo not drawn) [Compound 88, [3-[5-[4-[5-[3-[5-[(7-cyclopentylpyrazolo[1,5-a]pyrimidin-6-yl)carbamoylamino]-3-methyl-2-pyridyl]-1,2,4-oxadiazol-5-yl]pentyl]piperazin-1-yl]-1-oxo-isoindolin-2-yl]-2,6-dioxo-1-piperidyl]methyl 2,2-dimethylpropanoate] | –
< 500 nM | ≤ 0.2 µM | Cc1cc(NC(=O)Nc2cnc3ccnn3c2C(C)C)cnc1-c1noc(CCCCCN2CCN(c3ccc4c(c3)CN(C3CCC(=O)NC3=O)C4=O)CC2)n1 (stereo not drawn) [Compound 87, 1-[6-[5-[5-[4-[2-(2,6-dioxo-3-piperidyl)-1-oxo-isoindolin-5-yl]piperazin-1-yl]pentyl]-1,2,4-oxadiazol-3-yl]-5-methyl-3-pyridyl]-3-(7-isopropylpyrazolo[1,5-a]pyrimidin-6-yl)urea] | –
1000 to 5000 nM | ≤ 0.2 µM | Cc1cc(NC(=O)Nc2cnc3ccnn3c2C2CCCC2)cnc1-c1noc(CCCC(=O)N2CCN(c3ccc4c(c3)CN(C3CCC(=O)NC3=O)C4=O)CC2)n1 (stereo not drawn) [Compound 12, 1-(7-cyclopentylpyrazolo[1,5-a]pyrimidin-6-yl)-3-[6-[5-[4-[4-[2-(2,6-dioxo-3-piperidyl)-1-oxo-isoindolin-5-yl]piperazin-1-yl]-4-oxo-butyl]-1,2,4-oxadiazol-3-yl]-5-methyl-3-pyridyl]urea] | –
< 500 nM | ≤ 0.2 µM | O=C1CCC(N2Cc3cc(N4CCN(C(=O)CCCCc5nc(-c6ncc(NC(=O)Nc7cnc8ccnn8c7C7CCCC7)cc6C(F)(F)F)no5)CC4)ccc3C2=O)C(=O)N1 (stereo not drawn) [Compound 96, 1-(7-cyclopentylpyrazolo[1,5-a]pyrimidin-6-yl)-3-[6-[5-[5-[4-[2-(2,6-dioxo-3-piperidyl)-1-oxo-isoindolin-5-yl]piperazin-1-yl]-5-oxo-pentyl]-1,2,4-oxadiazol-3-yl]-5-(trifluoromethyl)-3-pyridyl]urea] | –
< 500 nM | ≤ 0.2 µM | O=C1CCC(N2Cc3cc(N4CCN(CCCCCc5nc(-c6ncc(NC(=O)Nc7cnc8ccnn8c7C7CCCC7)cc6Cl)no5)CC4)ccc3C2=O)C(=O)N1 (stereo not drawn) [Compound 79, 1-[5-chloro-6-[5-[5-[4-[2-(2,6-dioxo-3-piperidyl)-1-oxo-isoindolin-5-yl]piperazin-1-yl]pentyl]-1,2,4-oxadiazol-3-yl]-3-pyridyl]-3-(7-cyclopentylpyrazolo[1,5-a]pyrimidin-6-yl)urea] | –
– | ≤ 0.2 µM | O=C1CCC(N2Cc3cc(N4CCN(C(=O)CCCc5nc(-c6ncc(NC(=O)Nc7cnc8ccnn8c7C7CCCCC7)cc6Cl)no5)CC4)ccc3C2=O)C(=O)N1 (stereo not drawn) [Compound 120, 1-[5-chloro-6-[5-[4-[4-[2-(2,6-dioxo-3-piperidyl)-1-oxo-isoindolin-5-yl]piperazin-1-yl]-4-oxo-butyl]-1,2,4-oxadiazol-3-yl]-3-pyridyl]-3-(7-cyclohexylpyrazolo[1,5-a]pyrimidin-6-yl)urea] | < 500 nM
